pIC50, pKd: −log10 of the molar value. Where two headings read alike, the source gives them in different places.
Tests used:
[1] = target: T1, Recombinant human factor B catalytic domain (Homo sapiens, UniProt P00751); assay: TR-FRET factor B binding assay
Method: 5X kinase buffer A (Thermo Fisher, CAT#PV3189) • 3. LANCE Eu-W1024 anti-6xHis antibody (PerkinElmer, CAT#AD0401) • 4. […] Dimethyl sulfoxide (Thermo Fisher Scientific) • 6. Compound - 10 mM stock in DMSO • 7. Victor Nivo multi-mode microplate reader (PerkinElmer) • 8.
The binding affinity of each test compound to factor B was determined using the time-resolved fluorescence resonance energy transfer (TR-FRET) technology. 10 nM recombinant his-tagged factor B catalytic domain, different concentrations of inhibitors, 4 nM LANCE Eu-W1024 anti-6xHis antibody and 100 nM TR-FRET_tool2 tracer were incubated in 1X kinase buffer A for 1 hour. Measurements were performed with a reaction volume of 15 µL by adding 5 µL of the test compound, followed by the addition of 5 µL of a factor B/antibody mixture and 5 µL of the tracer to a white opaque 384-well assay plate.

[2] = target: T1, Recombinant human factor B catalytic domain; assay: Target residence time of factor B inhibitors by surface plasmon resonance (SPR); settings: for t1/2: binding half-life, t1/2 = ln2/koff; for residence time: read-out: Residence time (s)
Description: PBS-P+buffer 10X (Cytiva, CAT. No. 28995084) • 3. Series S Sensor Chip NTA (Cytiva, CAT# BR100532) • 4. Amine coupling kit (Cytiva, CAT#BR100050) • 5. […] Greiner 96-well polypropylene plates (Sigma Aldrich, CAT# M7310-100EA) • 7. […] Biacore 8k (Cytiva)
Before docking the Cytiva NTA chip, the Biacore 8k instrument was pretreated with 1X PBS-P + buffer. […] The protein ligand was further crosslinked to the sensor chip surface via an amine coupling kit. Immobilization and binding experiments were performed at room temperature.
After buffer exchanging to 1X PBS-P + buffer containing 2% (v/v) dimethyl sulfoxide, a pre-run was performed at a flow rate of 30 µl/min for at least 30 minutes to obtain a stable surface. […] The flow rate was 30 µl/min. Before the injection of the compound, a blank test was performed under the same conditions.
The SPR sensorgrams were analysed using Biacore Insight Evaluation software with the double-referencing method. The resulting curves were fitted to a 1 : 1 binding model. […] The kinetic constants (kon, koff and KD) obtained from replicate measurements were averaged. The binding half-life (t1/2) for the 1 : 1 binding model and the two-state reaction model was calculated from the dissociation constant koff, using the formula t1/2 = ln2/koff.

[3] = Salt form screening (natural evaporation and reactive crystallisation); assay type: physicochemical; set-up: key to PLM/XRPD or slurry solvent: "√" indicates the presence of birefringence phenomenon; "×" indicates the absence of birefringence phenomenon; settings: for PLM/XRPD or slurry solvent: 1:1; for Characterization result: reactive crystallisation, Ethyl acetate, 1:1, stirred room temperature about 24 hours
Method: Salt form screening experiments were conducted via the solvent evaporation method. About 10 mg of the free base of Example 3 was weighed into a 2 mL glass vial and dissolved in 100 µL of an organic solvent. A solution of the counterion acid in methanol was added dropwise at a molar ratio of 1:1. The resulting clear solution was allowed to evaporate at room temperature. The obtained solid was first characterised by PLM. If no birefringence was observed, the solids were slurried by adding a solvent. If birefringence was observed, the solids were further characterised by XRPD. Compounds with high crystallinity were selected for characterization by DSC and TGA.
Approximately 10 mg of the free base compound of Example 3 was weighed into a 2 mL glass vial and dissolved in 100 µL of an organic solvent. 22 µL of a solution of the acid in ethyl acetate was slowly added dropwise at a molar ratio of 1 : 1 under stirring. The resulting clear solution was stirred at room temperature for approximately 24 hours. The resulting solid was dried in vacuo at 40°C and characterised by XRPD, DSC and TGA.

[4] = system: AP complement activation; assay: In vivo assessment of AP complement functional activity in mice (LPS-induced, plasma C3b/iC3b/C3c ELISA); set-up: species or system C57BL/6 mice; settings: LPS 2.5 mg/kg i.p. 7.5 hours before end, compound 20 mg/kg oral 20 hours before end
Method: 20 hours before the end of the study, female C57BL/6 mice were orally gavaged with the formulation of compound of Example 3 (20 mg/kg, 0.5% (w/v) methylcellulose, 0.5% (v/v) Tween 80). To activate the complement pathway, lipopolysaccharide (LPS) from Salmonella typhimurium (Sigma) was injected intraperitoneally (2.5 mg/kg) 7.5 hours before the end of the study. Control mice received intraperitoneal injections of normal saline and oral gavage administration of vehicles. At the end of the study, plasma samples were collected from the mice. AP complement activation was assessed by measuring plasma C3 cleavage products, C3b/iC3b/C3c, using an ELISA method with rat anti-mouse C3b/iC3b/C3c monoclonal antibodies (clone 2/11, Hycult Biotech, 0.1 µg/well), and a goat anti-rat IgG (whole molecule)-peroxidase (Sigma) diluted in TBST (TBS/0.05% Tween 20). Table 4: Plasma C3b/iC3b/C3c following treatment

[5] = Pharmacokinetic study in rat eyes; assay type: in vivo, brown Norway rats; settings: Brown Norway, 2 mg/kg, 2 mpk PO; for half-life: in vivo
Method: Three-month-old brown Norway rats were orally gavaged with the example compound as a suspension in 2 equivalents of 1 N HCl + 30% PEG300 + 50% (20% Cremophor EL aqueous solution). At 0.25, 0.5, 1, 6, and 24 hours post-dosing, ocular tissues and plasma were collected from both eyes of the rats at respective time points. The ocular tissues collected comprised retina and the posterior eyecup (RPE/choroid and posterior sclera). Tissues were diluted with phosphate-buffered saline containing 10% acetonitrile, followed by homogenization and centrifugation prior to analysis. At each time point, test article concentrations in plasma and eye homogenate supernatants were measured in four individual retinal samples, four individual posterior eyecup samples and two individual plasma samples by using HPLC-MS/MS. Chromatographic separation was performed on a Waters BEH C18 column (2.1 × 50 mm, 1.7 µm) (MAC-MOD Analytical, Chadds-Ford, PA) with a gradient elution method using water and acetonitrile, both containing 0.025% formic acid-1 M NH4OAc. Mass spectrometry measurements in positive electrospray ionization were performed to quantify mass transitions using [M+H]+ as the precursor ion on an API6500 triple quadrupole mass spectrograph (Sciex, Framingham, MA). The relevant pharmacokinetic parameters were estimated using the non-compartmental method in WinNonlin (Enterprise, version 8.2). Table 3: Rat PK study results (2 mpk PO)

[6] = system: alternative complement pathway (AP); assay: Assessment of PD inhibition in rat plasma (ex vivo AP ELISA, MAC deposition on LPS, serum after oral dosing); set-up: species or system Sprague-Dawley rats; settings: over 24 hours; for inhibition at 2 mg/kg: Rattus norvegicus, rats, oral 2 mg/kg, AP deposition in 50% serum, read-out: Serum PD inhibition (%) over 24 hours (2 mpk)
Method: Male Sprague-Dawley rats (n = 3) were orally administered with vehicles (0.5% (w/v) methylcellulose, 0.5% (v/v) Tween 80), compound Iptacopan, or example compound formulations (in 0.5% (w/v) methylcellulose, 0.5% (v/v) Tween 80) at a dose of 2 mg/kg. Rat serum samples were collected at 0.25, 0.5, 1, 2, 4, 6, 8, and 24 hours post-dosing, and stored at -80°C. […] The coated plates were washed with GVB buffer (Complement technology) containing 5 mM MgCl2 and 10 mM EGTA (blocking both classical and lectin pathways). The collected serum samples were diluted by adding an equal volume of GVB buffer containing 10 mM MgCl2 and 20 mM EGTA. For negative controls, serum was diluted with GVB buffer containing 40 mM EDTA (blocking all complement pathways). Aliquots (50 ul) of 50% serum samples were added to the LPS-coated wells. The reaction plate was incubated at 37°C for 20 minutes (rat serum). […] Baseline (EDTA-treated serum) and maximum signal (EGTA-treated serum from vehicle-treated rats) were used to generate a percent inhibition value for each well.
Each data point in FIG. 37 represents the mean AP activity in rat serum. […] Table 5: Rat 24-hour PD study results

[7] = plasma, read-out: Plasma AUC0-last
[8] = retina, read-out: Retina AUC0-last

T1 sequence (P00751 470-764): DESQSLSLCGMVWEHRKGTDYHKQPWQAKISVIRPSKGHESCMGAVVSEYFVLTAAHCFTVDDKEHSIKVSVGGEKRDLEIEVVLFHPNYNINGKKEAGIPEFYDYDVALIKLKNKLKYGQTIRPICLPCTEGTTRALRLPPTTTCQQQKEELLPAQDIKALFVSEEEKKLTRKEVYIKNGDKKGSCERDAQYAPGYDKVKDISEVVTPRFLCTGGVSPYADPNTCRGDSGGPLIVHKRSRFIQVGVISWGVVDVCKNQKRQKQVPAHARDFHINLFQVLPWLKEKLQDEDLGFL

## COc1cc(C)c2[nH]ccc2c1CN1CCC2(C[C@H]1c1ccc(C(=O)O)cc1C(F)F)CC(F)(F)C2 [Example 1]
[1]
  pIC50: > 8.70
[2]
  pKd: 9.11
  t1/2: 0.8911 h
  residence time: 4630 s

## Cc1cc(C2CC2)c(CN2CCC3(C[C@H]2c2ccc(C(=O)O)cc2)CC(F)(F)C3)c2cc[nH]c12 [Example 2]
[1]
  pIC50: > 8.70
[2]
  pKd: 9.42
  t1/2: 1.214 h
  residence time: 6310 s

## COc1cc(C)c2[nH]ccc2c1CN1CCC2(C[C@H]1c1ccc(C(=O)O)cc1C)CC(F)(F)C2 [Example 3, (S)-4-(2,2-difluoro-7-((5-methoxy-7-methyl-1H-indol-4-yl)methyl)-7-azaspiro[3.5]nonan-6-yl)-3-methylbenzoic acid]
[3]; natural evaporation, Acetone, Hydrobromic acid (22 µL), slurried in ethyl acetate
  Post-slurry PLM/XRPD: √, crystal form A of hydrobromide
[3]; natural evaporation, Acetone, Hydrochloric acid (22 µL), slurried in ethyl acetate
  Post-slurry PLM/XRPD: √, high crystallinity, crystal form A of hydrochloride
[3]; natural evaporation, Acetone, Methanesulphonic acid (22 µL), slurried in ethyl acetate
  Post-slurry PLM/XRPD: √, crystal form A of methanesulfonat e
[3]; natural evaporation, Acetone, p-Toluenesulphonic acid (22 µL), slurried in ethyl acetate
  Post-slurry PLM/XRPD: √, crystal form A of p-toluenesulfonate
[3]; natural evaporation, Methanol, Hydrochloric acid (22 µL), slurried in 2-methyltetrahydrofuran
  Post-slurry PLM/XRPD: √, crystal form B of hydrochloride
[3]; natural evaporation, solvent Acetone, Hydrobromic acid (22 µL)
  PLM/XRPD or slurry solvent: ×, ethyl acetate
[3]; natural evaporation, solvent Acetone, Hydrochloric acid (22 µL)
  PLM/XRPD or slurry solvent: ×, ethyl acetate
[3]; natural evaporation, solvent Acetone, Methanesulphonic acid (22 µL)
  PLM/XRPD or slurry solvent: ×, ethyl acetate
[3]; natural evaporation, solvent Acetone, p-Toluenesulphonic acid (22 µL)
  PLM/XRPD or slurry solvent: ×, ethyl acetate
[3]; natural evaporation, solvent Methanol, Adipic acid (22 µL)
  PLM/XRPD or slurry solvent: √, crystal form A of adipate
[3]; natural evaporation, solvent Methanol, Fumaric acid (88 µL)
  PLM/XRPD or slurry solvent: √, crystal form A of fumarate
[3]; natural evaporation, solvent Methanol, Hippuric acid (55 µL)
  PLM/XRPD or slurry solvent: √, crystal form A of hippurate
[3]; natural evaporation, solvent Methanol, Hydrobromic acid (22 µL)
  PLM/XRPD or slurry solvent: √, high crystallinity
[3]; natural evaporation, solvent Methanol, Hydrochloric acid (22 µL)
  PLM/XRPD or slurry solvent: ×, 2-methyltetrahydrofuran
[3]; natural evaporation, solvent Methanol, Malonic acid (22 µL)
  PLM/XRPD or slurry solvent: √, crystal form A of malonate
[3]; natural evaporation, solvent Methanol, Oxalic acid (22 µL)
  PLM/XRPD or slurry solvent: √, crystal form A of oxalate
[3]; natural evaporation, solvent Methanol, Succinic acid (22 µL)
  PLM/XRPD or slurry solvent: √, crystal form A of succinate
[3]; Hydrobromic acid
  Characterization result: Crystal form A of hydrobromide
[3]; Hydrochloric acid
  Characterization result: Crystal form A of hydrochloride
[3]; Methanesulphonic acid
  Characterization result: Crystal form A of methanesulfonate
[3]; solvent Ethyl acetate, Hydrobromic acid (22 µL), Clear → Suspension (slurried)
  PLM/XRPD or slurry solvent: √, crystal form A of hydrobromide
[3]; solvent Toluene, Hydrobromic acid (22 µL), Clear → Suspension (slurried)
  PLM/XRPD or slurry solvent: √, crystal form A of hydrobromide
[4]
  Plasma C3b/iC3b/C3c (1 x 10^6): 210.25 ^ns 1 x 10^6
[1]
  pIC50: > 8.70
[5]; [7]
  AUC(0-t): 12.7 µM·h
[5]; [8]
  AUC(0-t): 0.796 µM·h
[5]
  half-life: 1330 min
[6]; 2 mg/kg oral, 50% serum
  inhibitory effects in the ex vivo PD assay in rats: sustained inhibitory effects
[6]
  inhibition at 2 mg/kg: 57.5%
[2]
  pKd: 9.77
  t1/2: 1.188 h
  residence time: 6170 s

## CCO[C@H]1CCN(Cc2c(OC)cc(C)c3[nH]ccc23)[C@H](c2ccc(C(=O)O)cc2)C1 [Iptacopan, reference compound]
[5]; [7]
  AUC(0-t): 13.5 µM·h
[5]; [8]
  AUC(0-t): 0.141 µM·h
[5]
  half-life: 318 min
[6]
  inhibition at 2 mg/kg: -3%

Reference: patent EP4703356A1, “SALT OF PIPERIDYLINDOLE COMPOUND AND PREPARATION METHOD THEREFOR” (Shanghai Hansoh Biomedical Co., Ltd., priority 2023, dated 2024)
